Paper PMC4245888 (Frontiers in Pharmacology, 2014)

Columns and labels:
[1] = cited from earlier work; for terminal elimination half-life: the drug and its metabolite, ref Ezzet et al., 2001
[2] = Pharmacokinetics of total EZE in plasma, single-dose three-period crossover study, EZE alone vs ATO–EZE combination; type: in vivo, human; conditions: EZE 10 mg coadministered with ATO 80 mg; bioequivalence-based hypothesis
Experimental: Thirty six healthy Mexicans volunteers of both gender who were between the ages of 18 and 45 (mean ± SEM: 24.71 ± 0.03 years), had heights between 140.0 and 190.0 cm (163.0 ± 0.005 cm), and weighed between 43.50 and 79.50 kg (62.15 ± 1.9 kg) were enrolled in the study. The study protocol was approved by an independent ethics committee as well as by the regulatory authority in Mexico (COFEPRIS), and it was conducted following the ethical principles described in the Declaration of Helsinki. […]
For the determination of both molecules were developed an analytical method, where only once plasma processing is used to obtain both molecules, but the quantification of the analytes was performed on two separate injections ATO in positive electrospray ionization ESI (+) mode and EZE in negative electrospray ionization ESI (-) mode. […]
Chromatographic analysis was performed on UPLC-MS/MS system consisting of Acquity UPLC coupled to a tandem mass spectrometry detector XEVO-TQS (Waters, USA) and Acquity UPLC BEH C18 (1.7 μm, 2.1 × 100 mm) column (Waters, USA). […] MRM data were acquired and analyzed through MassLynx software (Waters, USA). […]

[3] = test system: major drug metabolizing enzymes (CYP450); set-up: method as in van Heek and Davis, 2002; conditions: ref van Heek and Davis, 2002; cited from earlier work
[4] = cited from earlier work
[5] = test system: cholesterol and triglyceride levels; conditions: cited from earlier work
[6] = oral administration, ref van Heek et al., 2000, Patrick et al., 2002, Malloy and Kane, 2007, Mahley and Bersot, 2008
[7] = dose of 10 mg, ref Kosoglou et al. (2002)
[8] = hyperlipidemic patients, dose dependent, ref Nawrocki et al., 1995, Heinonen et al., 1996

Structure (SMILES) | time of first peak blood level (dual peak, enterohepatic recirculation) [1, 6] [h] | time of second peak blood level (dual peak, enterohepatic recirculation) [1, 6] [h] | terminal elimination half-life [1] [h] | pharmacokinetic drug–drug interaction (on EZE) [2] | effect on the activity of major drug metabolizing enzymes (CYP450) [3] | Cmax of EZE [1, 7] [µg/mL] | area under the curve to the end point of EZE [1, 7] [µg·h/mL] | fraction biotransformed into glucuronide active metabolite ([1]; ref Kosoglou et al. (2002)) [%] | intra-subject variability ([4]; ref European Medicines Agency [EMEA] (2010)) [%] | share of circulating inhibitory activity for HMG-CoA reductase attributed to active metabolites (ortho- and parahydroxy ATO) ([4]; ref Pfizer Inc. Lipitor®, 2009) | reduction of colesterol and triglycerides, significantly larger than equivalent doses of other statin drugs ([5]; P ≤ 0.01, ref Jones et al., 1998) | lowering of cholesterol levels [5, 8] | lowering of triglyceride levels [5, 8]
O=C(O)[C@H]1O[C@@H](Oc2ccc([C@@H]3[C@@H](CC[C@H](O)c4ccc(F)cc4)C(=O)N3c3ccc(F)cc3)cc2)[C@H](O)[C@@H](O)[C@@H]1O [EZE-G] | 4 to 6 | 10 to 12 | 20 to 30 |  |  |  |  |  |  |  |  |  | 
O=C1[C@H](CC[C@H](O)c2ccc(F)cc2)[C@@H](c2ccc(O)cc2)N1c1ccc(F)cc1 [EZE, Ezetimibe] |  |  | 20 to 30 | no relevant pharmacokinetic drug–drug interaction | no effect | 0.0642 to 0.0736 | 0.44 to 0.722 | > 80 |  |  |  |  | 
CC(C)c1c(C(=O)Nc2ccccc2)c(-c2ccccc2)c(-c2ccc(F)cc2)n1CC[C@@H](O)C[C@@H](O)CC(=O)O [ATO, Atorvastatin] |  |  |  |  |  |  |  |  | > 30 | Approximately 70% | 38–51% | 25–61% | 9–61%
